Test system: MCH receptors
Assay: MCH receptor activity class (method not given)
Details: MCH receptor; class by percent of control at 10^-7 M or IC50

SMILES	class
CN(C)c1cc(N[C@H]2CC[C@@H](NC(=O)c3ccc(F)c(C(F)(F)F)c3)CC2)nc2ccccc12 [compound 106, N-(cis-4-{[4-(dimethylamino)quinolin-2-yl]amino}cyclohexyl)-4-fluoro-3-(trifluoromethyl)benzamide]	1 (Class 1: The value of percent of control at 10^−7 M was less than 40% or the value of IC50 was less than 50 nM.)
Cc1nn(-c2ccccc2)nc1C(=O)N[C@H]1CC[C@@H](Nc2cc(N(C)C)c3ccccc3n2)CC1 [compound 107, N-(cis-4-{[4-(dimethylamino)quinolin-2-yl]amino}cyclohexyl)-5-methyl-2-phenyl-2H-1,2,3-triazole-4-carboxamide]	2 (Class 2: The value of percent of control at 10^−7 M was from 40% to 60% or the value of IC′50 was from 50 nM to 200 nM.)
COc1ccc(Oc2ccc([N+](=O)[O-])cc2C(=O)N[C@H]2CC[C@@H](Nc3cc(N(C)C)c4ccccc4n3)CC2)cc1 [compound 108, N-(cis-4-{[4-(dimethylamino)quinolin-2-yl]amino}cyclohexyl)-2-(4-methoxyphenoxy)-5-nitrobenzamide]	1 (Class 1: The value of percent of control at 10^−7 M was less than 40% or the value of IC50 was less than 50 nM.)
CN(C)c1cc(N[C@H]2CC[C@@H](NC(=O)c3cccc4ccccc34)CC2)nc2ccccc12 [compound 109]	3 (Class 3 The value of percent of control at 10^−7 M was more than 60% or the value of IC50 was more than 200 nM.)
CN(C)c1cc(N[C@H]2CC[C@@H](NC(=O)c3ccc4ccccc4c3)CC2)nc2ccccc12 [compound 110]	3 (Class 3 The value of percent of control at 10^−7 M was more than 60% or the value of IC50 was more than 200 nM.)
CN(C)c1cc(N[C@H]2CC[C@@H](NC(=O)c3ccc([N+](=O)[O-])o3)CC2)nc2ccccc12 [compound 111, N-(cis-4-{[4-(dimethylamino)quinolin-2-yl]amino}cyclohexyl)-5-nitro-2-furamide]	1 (Class 1: The value of percent of control at 10^−7 M was less than 40% or the value of IC50 was less than 50 nM.)
CN(C)c1cc(N[C@H]2CC[C@@H](NC(=O)COc3ccccc3)CC2)nc2ccccc12 [compound 112, N-(cis-4-{[4-(dimethylamino)quinolin-2-yl]amino}cyclohexyl)-2-phenoxyacetamide]	1 (Class 1: The value of percent of control at 10^−7 M was less than 40% or the value of IC50 was less than 50 nM.)
CN(C)c1cc(N[C@H]2CC[C@@H](NC(=O)COc3ccccc3[N+](=O)[O-])CC2)nc2ccccc12 [compound 113]	3 (Class 3 The value of percent of control at 10^−7 M was more than 60% or the value of IC50 was more than 200 nM.)
CN(C)c1cc(N[C@H]2CC[C@@H](NC(=O)c3cnc4ccccc4n3)CC2)nc2ccccc12 [compound 114, N-(cis-4-{[4-(dimethylamino)quinolin-2-yl]amino}cyclohexyl)quinoxaline-2-carboxamide]	2 (Class 2: The value of percent of control at 10^−7 M was from 40% to 60% or the value of IC′50 was from 50 nM to 200 nM.)
COc1cc(C(=O)N[C@H]2CC[C@@H](Nc3cc(N(C)C)c4ccccc4n3)CC2)cc(OC)c1OC [compound 115]	3 (Class 3 The value of percent of control at 10^−7 M was more than 60% or the value of IC50 was more than 200 nM.)
CN(C)c1cc(N[C@H]2CC[C@@H](NC(=O)c3cccc(C(F)(F)F)c3)CC2)nc2ccccc12 [compound 116]	3 (Class 3 The value of percent of control at 10^−7 M was more than 60% or the value of IC50 was more than 200 nM.)
CN(C)c1cc(N[C@H]2CC[C@@H](NC(=O)c3ccc(C(F)(F)F)cc3)CC2)nc2ccccc12 [compound 117]	3 (Class 3 The value of percent of control at 10^−7 M was more than 60% or the value of IC50 was more than 200 nM.)
CN(C)c1cc(N[C@H]2CC[C@@H](NC(=O)c3ccccc3OC(F)(F)F)CC2)nc2ccccc12 [compound 118]	3 (Class 3 The value of percent of control at 10^−7 M was more than 60% or the value of IC50 was more than 200 nM.)
COc1cc(COC(=O)N[C@H]2CC[C@@H](Nc3cc(N(C)C)c4ccccc4n3)CC2)c([N+](=O)[O-])cc1OC [compound 119]	3 (Class 3 The value of percent of control at 10^−7 M was more than 60% or the value of IC50 was more than 200 nM.)
CN(C)c1cc(N[C@H]2CC[C@@H](NC(=O)CCCOc3ccccc3)CC2)nc2ccccc12 [compound 120]	3 (Class 3 The value of percent of control at 10^−7 M was more than 60% or the value of IC50 was more than 200 nM.)
COc1ccc(Br)c(C(=O)N[C@H]2CC[C@@H](Nc3cc(N(C)C)c4ccccc4n3)CC2)c1 [compound 121]	3 (Class 3 The value of percent of control at 10^−7 M was more than 60% or the value of IC50 was more than 200 nM.)
CN(C)c1cc(N[C@H]2CC[C@@H](NC(=O)COc3c(F)c(F)c(F)c(F)c3F)CC2)nc2ccccc12 [compound 122]	3 (Class 3 The value of percent of control at 10^−7 M was more than 60% or the value of IC50 was more than 200 nM.)
COc1ccc(CC(=O)N[C@H]2CC[C@@H](Nc3cc(N(C)C)c4ccccc4n3)CC2)cc1OC [compound 123]	3 (Class 3 The value of percent of control at 10^−7 M was more than 60% or the value of IC50 was more than 200 nM.)
CN(C)c1cc(N[C@H]2CC[C@@H](NC(=O)c3ccc(F)c(F)c3F)CC2)nc2ccccc12 [compound 124]	3 (Class 3 The value of percent of control at 10^−7 M was more than 60% or the value of IC50 was more than 200 nM.)

SMILES	class
CN(C)c1cc(N[C@H]2CC[C@@H](NC(=O)C3CCCC3)CC2)nc2ccccc12 [compound 125]	3 (Class 3 The value of percent of control at 10^−7 M was more than 60% or the value of IC50 was more than 200 nM.)
CN(C)c1cc(N[C@H]2CC[C@@H](NC(=O)c3ccc(F)cc3F)CC2)nc2ccccc12 [compound 126, N-(cis-4-{[4-(dimethylamino)quinolin-2-yl]amino}cyclohexyl)-2,4-difluorobenzamide]	3 (Class 3 The value of percent of control at 10^−7 M was more than 60% or the value of IC50 was more than 200 nM.)
CN(C)c1cc(N[C@H]2CC[C@@H](NC(=O)CCc3ccccc3)CC2)nc2ccccc12 [compound 127]	3 (Class 3 The value of percent of control at 10^−7 M was more than 60% or the value of IC50 was more than 200 nM.)
CN(C)c1cc(N[C@H]2CC[C@@H](NC(=O)c3cc(F)c(F)c(F)c3F)CC2)nc2ccccc12 [compound 128]	3 (Class 3 The value of percent of control at 10^−7 M was more than 60% or the value of IC50 was more than 200 nM.)
CCOc1ccc2ccccc2c1C(=O)N[C@H]1CC[C@@H](Nc2cc(N(C)C)c3ccccc3n2)CC1 [compound 129]	3 (Class 3 The value of percent of control at 10^−7 M was more than 60% or the value of IC50 was more than 200 nM.)
CN(C)c1cc(N[C@H]2CC[C@@H](NC(=O)c3c(F)c(F)c(F)c(F)c3F)CC2)nc2ccccc12 [compound 130]	3 (Class 3 The value of percent of control at 10^−7 M was more than 60% or the value of IC50 was more than 200 nM.)
CN(C)c1cc(N[C@H]2CC[C@@H](NC(=O)c3ccc(SC(F)(F)F)cc3)CC2)nc2ccccc12 [compound 131]	3 (Class 3 The value of percent of control at 10^−7 M was more than 60% or the value of IC50 was more than 200 nM.)
CN(C)c1cc(N[C@H]2CC[C@@H](NC(=O)c3sc(Cl)c(Cl)c3Cl)CC2)nc2ccccc12 [compound 132]	3 (Class 3 The value of percent of control at 10^−7 M was more than 60% or the value of IC50 was more than 200 nM.)
CN(C)c1cc(N[C@H]2CC[C@@H](NC(=O)COc3cccc(Cl)c3)CC2)nc2ccccc12 [compound 133]	1 (Class 1: The value of percent of control at 10^−7 M was less than 40% or the value of IC50 was less than 50 nM.)
Cc1onc(-c2c(Cl)cccc2Cl)c1C(=O)N[C@H]1CC[C@@H](Nc2cc(N(C)C)c3ccccc3n2)CC1 [compound 134]	1 (Class 1: The value of percent of control at 10^−7 M was less than 40% or the value of IC50 was less than 50 nM.)
CN(C)c1cc(N[C@H]2CC[C@@H](NC(=O)c3cccnc3Oc3ccccc3)CC2)nc2ccccc12 [compound 135, N-(cis-4-{[4-(dimethylamino)quinolin-2-yl]amino}cyclohexyl)-2-phenoxynicotinamide]	1 (Class 1: The value of percent of control at 10^−7 M was less than 40% or the value of IC50 was less than 50 nM.)
CN(C)c1cc(N[C@H]2CC[C@@H](NC(=O)c3cccnc3Sc3ccccc3)CC2)nc2ccccc12 [compound 136]	3 (Class 3 The value of percent of control at 10^−7 M was more than 60% or the value of IC50 was more than 200 nM.)
Cc1ccc(Oc2ncccc2C(=O)N[C@H]2CC[C@@H](Nc3cc(N(C)C)c4ccccc4n3)CC2)cc1 [compound 137, N-(cis-4-{[4-(dimethylamino)quinolin-2-yl]amino}cyclohexyl)-2-(4-methylphenoxy)nicotinamide]	1 (Class 1: The value of percent of control at 10^−7 M was less than 40% or the value of IC50 was less than 50 nM.)
CCCN(CCC)S(=O)(=O)c1ccc(C(=O)N[C@H]2CC[C@@H](Nc3cc(N(C)C)c4ccccc4n3)CC2)cc1 [compound 138]	3 (Class 3 The value of percent of control at 10^−7 M was more than 60% or the value of IC50 was more than 200 nM.)
CN(C)c1cc(N[C@H]2CC[C@@H](NC(=O)C(C)(C)Oc3ccc(Cl)cc3)CC2)nc2ccccc12 [compound 139]	3 (Class 3 The value of percent of control at 10^−7 M was more than 60% or the value of IC50 was more than 200 nM.)
CN(C)c1cc(N[C@H]2CC[C@@H](NC(=O)c3cc(-c4ccc(Cl)cc4)oc3C(F)(F)F)CC2)nc2ccccc12 [compound 140]	3 (Class 3 The value of percent of control at 10^−7 M was more than 60% or the value of IC50 was more than 200 nM.)
CN(C)c1cc(N[C@H]2CC[C@@H](NC(=O)c3csc(-c4ccc5c(c4)CCO5)n3)CC2)nc2ccccc12 [compound 141]	3 (Class 3 The value of percent of control at 10^−7 M was more than 60% or the value of IC50 was more than 200 nM.)
CN(C)c1cc(N[C@H]2CC[C@@H](NC(=O)c3cc(C(C)(C)C)nn3Cc3ccc(Cl)cc3Cl)CC2)nc2ccccc12 [compound 142]	3 (Class 3 The value of percent of control at 10^−7 M was more than 60% or the value of IC50 was more than 200 nM.)

From patent US20050197350A1, “Novel quinoline, tetrahydroquinazoline, and pyrimidine derivatives and methods of treatment related to the use thereof” (TAISHO PHARMACEUTICAL CO., LTD., priority 2003, published 2005)
